We go through 15 compounds from US20230321008A1, “INHIBITORS OF ACID SPHINGOMYELINASE FOR PREVENTING AND TREATING THE COVID-19 DISEASE” (priority 2020, published 2023).

One assay deals with severe COVID-19. In words: Example 2: multicenter observational retrospective cohort study, FIASMA medication use at baseline and intubation or death in patients hospitalized for severe COVID-19. The format is in vivo, human. The conditions noted are these: vs no FIASMA medication. The text has this:
We included all adults aged 18 years or over who have been hospitalized in these medical centers for severe COVID-19. COVID-19 was ascertained by a positive reverse-transcriptase-polymerase-chain-reaction (RT-PCR) test from analysis of nasopharyngeal or oropharyngeal swab specimens. Severe COVID-19 at admission was defined as having at least one of the following criteria: respiratory rate > 24 breaths/min or < 12 breaths/min, resting peripheral capillary oxygen saturation in ambient air < 90%, temperature > 40° C., systolic blood pressure < 100 mm Hg or high lactate levels. AP-HP clinical Data Warehouse initiatives ensure patient information and informed consent regarding the different approved studies through a transparency portal in accordance with European Regulation on data protection and authorization n°1980120 from National Commission for Information Technology and Civil Liberties (CNIL).
We used data from the AP-HP Health Data Warehouse (‘Entrepôt de Données de Santé (EDS)’). This warehouse contains all available clinical data on all inpatient visits for COVID-19 to any Greater Paris University hospital. The data included patient demographic characteristics, vital signs, laboratory test and RT-PCR test results, medication administration data, medication lists during current and past hospitalizations in AP-HP hospitals, current diagnoses, discharge disposition, and death certificates.
We obtained the following data for each patient at the time of the hospitalization: sex; age, which was categorized into 4 classes based on the OpenSAFELY study results (i.e. 18-50, 51-70, 71-80, 81+); hospital, which was categorized into 4 classes following the administrative clustering of AP-HP hospitals in Paris and its suburbs based on their geographical location (i.e., AP-HP Centre - Paris University, Henri Mondor University Hospitals and at home hospitalization; AP-HP Nord and Hôpitaux Universitaires Paris Seine-Saint-Denis; AP-HP Paris Saclay University; and AP-HP Sorbonne University); obesity, which was defined as having a body mass index higher than 30 kg/m^2 or an International Statistical Classification of Diseases and Related Health Problems (ICD-10) diagnosis code for obesity (E66.0, E66.1, E66.2, E66.8, E66.9); self-reported current smoking status; and any medication prescribed according to compassionate use or as part of a clinical trial (e.g. hydroxychloroquine, azithromycin, remdesivir, tocilizumab, sarilumab, or dexamethasone). To take into account possible confounding by indication bias for FIASMA medication, we recorded whether patients had any current diagnosis, based on ICD-10 diagnosis codes, for neoplasms and diseases of the blood (C00-D89); mental disorders (F01-F99); diseases of the nervous system (G00-G99); cardiovascular disorders (I00-I99); respiratory disorders (J00-J99); digestive disorders (K00-K95); dermatological disorders (L00-L99); diseases of the musculoskeletal system (M00-M99); diseases of the genitourinary system (N00-N99); endocrine disorders (E00-E89); and eye-ear-nose-throat disorders (H00-H95).
All medical notes and prescriptions are computerized in Greater Paris University hospitals. Medications including their dosage, frequency, date, and mode of administration were identified from medication administration data or scanned handwritten medical prescriptions, through two deep learning models based on BERT contextual embeddings, one for the medications and another for their mode of administration. The model was trained on the APmed corpus, a previously annotated dataset for this task. Extracted medications names were then normalized to the Anatomical Therapeutic Chemical (ATC) terminology using approximate string matching.
FIASMA medication use was defined as receiving at least one FIASMA medication at study baseline, i.e. within the first 24 hours of hospital admission, and before the end of the index hospitalization, intubation or death.

Assay [1] concerns the target T1, acid sphingomyelinase (ASM) (Homo sapiens, UniProt P17405).
T1 sequence (P17405 47-631): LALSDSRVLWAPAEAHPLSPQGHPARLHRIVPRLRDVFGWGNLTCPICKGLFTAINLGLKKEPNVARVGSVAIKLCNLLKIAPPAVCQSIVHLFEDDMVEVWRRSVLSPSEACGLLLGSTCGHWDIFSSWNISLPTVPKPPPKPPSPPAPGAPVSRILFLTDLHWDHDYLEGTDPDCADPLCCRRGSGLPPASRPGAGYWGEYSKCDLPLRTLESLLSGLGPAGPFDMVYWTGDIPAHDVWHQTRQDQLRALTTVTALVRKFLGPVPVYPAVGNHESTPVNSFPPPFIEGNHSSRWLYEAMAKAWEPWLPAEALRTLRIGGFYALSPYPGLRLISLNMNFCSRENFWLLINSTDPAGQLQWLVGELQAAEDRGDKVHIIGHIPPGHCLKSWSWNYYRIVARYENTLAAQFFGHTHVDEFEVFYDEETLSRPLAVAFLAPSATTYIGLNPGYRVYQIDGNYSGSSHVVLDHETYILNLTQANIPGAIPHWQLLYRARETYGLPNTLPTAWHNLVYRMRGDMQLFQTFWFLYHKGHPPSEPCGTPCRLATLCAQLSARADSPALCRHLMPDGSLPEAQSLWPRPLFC
Conditions: cited from earlier work.

In another assay the target is Sigma-1 receptors (S1R) (Homo sapiens, UniProt Q99720). The conditions noted are these: cited from earlier work.
For the next assay, the system named is glia activation. The conditions noted are these: dependent on glia activation; cited from earlier work.
In assay [2] the test system is SARS-CoV-2. The conditions noted are these: in vitro; cited from earlier work.
Assay [3] relates to ceramide-enriched membrane domains. Conditions: in vitro; cited from earlier work.
The test system of assay [4] is SARS-CoV-2. Conditions: cited from earlier work.
A further assay has as its system COVID-19. The conditions noted are these: human, in vivo; cited from earlier work.

Entries after “also recorded” stand apart in the source; their conditions may differ.

Sequence of Sigma-1 receptors (S1R) (Q99720 whole entry): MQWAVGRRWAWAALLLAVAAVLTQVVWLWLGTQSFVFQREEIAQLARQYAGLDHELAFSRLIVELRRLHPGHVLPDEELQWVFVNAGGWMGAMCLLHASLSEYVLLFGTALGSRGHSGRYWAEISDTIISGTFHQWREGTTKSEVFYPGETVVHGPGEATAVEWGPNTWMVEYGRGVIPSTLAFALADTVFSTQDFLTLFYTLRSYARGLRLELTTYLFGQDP

Regarding `CCCCc1oc2ccccc2c1C(=O)c1cc(I)c(OCCN(CC)CC)c(I)c1` [Amiodarone, amiodarone], the “Association of use at baseline with risk of intubation or death (in words)” value (“Association of use at baseline” below) with severe COVID-19 was “effective preventive and curative treatments for reducing risk of death or intubation”.

As for `O=C1CCc2ccc(OCCCCN3CCN(c4cccc(Cl)c4Cl)CC3)cc2N1` [Aripiprazole, aripiprazole], the “In vitro inhibition of acid sphingomyelinase (in words)” value (“In vitro inhibition” below) in assay [1] is given as “in vitro inhibit acid sphingomyelinase with varying degrees”. Further, the “Affinity for Sigma-1 receptors (in words)” value (“Affinity” for short) at Sigma-1 receptors (S1R) is “low or no affinity for S1R”. For the same compound, the “Association of use at baseline” value in the assay with severe COVID-19 was “effective preventive and curative treatments for reducing risk of death or intubation”.

On to `CN(C)CCCN1c2ccccc2Sc2ccc(Cl)cc21` [Chlorpromazine, chlorpromazine], for which the “In vitro inhibition” value in assay [1] is given as “in vitro inhibit acid sphingomyelinase with varying degrees”. In the assay with glia activation, the “Anti-inflammatory effect (in words)” value was “anti-inflammatory effect was observed”. Further, at Sigma-1 receptors (S1R), the “Affinity” value is listed as “low or no affinity for S1R”. The “Association of use at baseline” value in the assay on severe COVID-19 was “effective preventive and curative treatments for reducing risk of death or intubation”.

With `Clc1ccc2c(c1)CCc1cccnc1C2=C1CCNCC1` [Desloratadine, desloratadine], in the assay with severe COVID-19, the “Association of use at baseline” value was “effective preventive and curative treatments for reducing risk of death or intubation”.

For the compound `CNCC[C@H](Oc1cccc2ccccc12)c1cccs1` [Duloxetine, duloxetine], in assay [1], the “In vitro inhibition” value is “in vitro inhibit acid sphingomyelinase with varying degrees”. For the same compound, on Sigma-1 receptors (S1R), the “Affinity” value is listed as “low or no affinity for S1R”.

Turning to `CN(C)C(=O)C(CCN1CCC(O)(c2ccc(Cl)cc2)CC1)(c1ccccc1)c1ccccc1` [Loperamide, loperamide], the “In vitro inhibition” value in assay [1] is listed as “in vitro inhibit acid sphingomyelinase with varying degrees”. Further, the “Association of use at baseline” value with severe COVID-19 was “effective preventive and curative treatments for reducing risk of death or intubation”.

In the case of `Fc1ccc([C@@H]2CCNC[C@H]2COc2ccc3c(c2)OCO3)cc1` [Paroxetine, paroxetine], in the assay with SARS-CoV-2 [2], the “Inhibition of viral replication (in words)” value is recorded as “inhibition of viral replication was not observed”. For the same compound, the “In vitro inhibition” value in assay [1] is listed as “in vitro inhibit acid sphingomyelinase with varying degrees”. For the same compound, on Sigma-1 receptors (S1R), the “Affinity” value was “low or no affinity for S1R”.

On to `CN[C@H]1CC[C@@H](c2ccc(Cl)c(Cl)c2)c2ccccc21` [Sertraline, sertraline], for which the “Formation of ceramide-enriched membrane domains (in words)” value (shortened to “Formation”) in assay [3] is “inhibited ASM and the formation of ceramide-enriched membrane domains”. In addition, the “In vitro inhibition” value in assay [1] is on record as “inhibited ASM; also recorded: in vitro inhibit acid sphingomyelinase with varying degrees”. For the same compound, the “Infection of Vero cells with SARS-CoV-2 (in words)” value (shortened to “Infection of Vero cells”) with SARS-CoV-2 [4] is listed as “prevented Vero cells from being infected with SARS-CoV-2”. For the same compound, at Sigma-1 receptors (S1R), the “Affinity” value was “low or no affinity for S1R”.

For the compound `CC[C@H]1OC(=O)[C@H](C)[C@@H](O[C@H]2C[C@@](C)(OC)[C@@H](O)[C@H](C)O2)[C@H](C)[C@@H](O[C@@H]2O[C@H](C)C[C@H](N(C)C)[C@H]2O)[C@](C)(O)C[C@@H](C)CN(C)[C@H](C)[C@@H](O)[C@]1(C)O` [azithromycin], in the assay with COVID-19, the “Effect on mortality in patients hospitalized with COVID-19 (in words)” value is recorded as “non-significant effect on mortality”.

Take `CNCCCN1c2ccccc2CCc2ccccc21` [desipramine]: in assay [3], the “Formation” value is “inhibited ASM and the formation of ceramide-enriched membrane domains”. The “In vitro inhibition” value in assay [1] is “inhibited ASM; also recorded: in vitro inhibit acid sphingomyelinase with varying degrees”. Further, the “Infection of Vero cells” value with SARS-CoV-2 [4] was “prevented Vero cells from being infected with SARS-CoV-2”.

For the compound `O=C(CCCN1CCC(O)(c2ccc(Cl)cc2)CC1)c1ccc(F)cc1` [haloperidol], the “Anti-inflammatory effect (in words)” value in the assay on glia activation is recorded as “anti-inflammatory effect was observed”.

In the case of `CCN(CCO)CCCC(C)Nc1ccnc2cc(Cl)ccc12` (stereo not drawn) [hydroxychloroquine], the “Effect on mortality in patients hospitalized with COVID-19 (in words)” value in the assay with COVID-19 was “non-significant effect on mortality”.

As for `CN(C)CCCN1c2ccccc2CCc2ccccc21` [imipramine], the “Formation” value in assay [3] was “inhibited ASM and the formation of ceramide-enriched membrane domains”. In assay [1], the “In vitro inhibition” value was “inhibited ASM; also recorded: in vitro inhibit acid sphingomyelinase with varying degrees”. For the same compound, the “Infection of Vero cells” value with SARS-CoV-2 [4] is “prevented Vero cells from being infected with SARS-CoV-2”.

For `CNCCCC12CCC(c3ccccc31)c1ccccc12` [maprotiline], in assay [3], the “Formation” value is “inhibited ASM and the formation of ceramide-enriched membrane domains”. Further, the “In vitro inhibition” value in assay [1] is reported as “inhibited ASM; also recorded: in vitro inhibit acid sphingomyelinase with varying degrees”. For the same compound, in the assay with SARS-CoV-2 [4], the “Infection of Vero cells” value is recorded as “prevented Vero cells from being infected with SARS-CoV-2”.

For the compound `Cc1nc2n(c(=O)c1CCN1CCC(c3noc4cc(F)ccc34)CC1)CCCC2` [risperidone], in the assay with glia activation, the “Anti-inflammatory effect (in words)” value is reported as “anti-inflammatory effect was observed”.
